The values below come from patent US20190202823A1, “N-SULFONYLATED PYRAZOLO[3,4-b]PYRIDIN-6-CARBOXAMIDES AND METHOD OF USE” (AbbVie S.à.r.l., priority 2015, published 2019).

Read-outs that look alike come from different tables or passages of the source.

For one experiment, the target named is T1, CFTR ΔF508 (Homo sapiens, UniProt P13569, DEL508-508).
T1 construct: bronchial epithelial cells isolated from CF patients homozygous for the CFTR ΔF508 mutation; McGill University; Asterand; University of North Carolina hAEC-CF; host or cells: primary human bronchial epithelial cells from CF patients homozygous for ΔF508
In words: Chronic TECC assay, primary bronchial epithelial cells from CF patients homozygous for CFTR ΔF508. As to conditions: for EC50: chronic TECC, with co-corrector and potentiator, AUC = full area under the curve upon forskolin stimulation; for activity at 3 µM: read-out: % Activity at 3 μM (AUC**). It counts as cell-based. The protocol: The TECC (Tranepithelial Clamp Circuit, EP-design) assay measures the functionality of the cystic fibrosis Transmembrane Conductance regulator (CFTR) by measuring the short circuit current (Isc) generated over the basolateral and apical membrane of lung epithelial cells. In TECC the transepithelial potential PD and transepithelial resistance (Rt) are measured in an open circuit and transformed to Ieq using Ohm's law. 24 Wells can be measured simultaneously allowing a higher throughput compared to Ussing chambers.
For this purpose, bronchial epithelial cells isolated from CF patients homozygous for the CFTR ΔF508 mutation (hAEC-CF, Epithelix, Geneva, Switzerland; McGill University, Montreal, Qc; Asterand, Detroit, Mich.; University of North Carolina, Chapel Hill, N.C.) are plated on type IV collagen-coated Transwell® supports (Costar).
For electrophysiological recording of the “chronic” experiments, the human airway epithelia are mounted in the TECC heating plate for electrophysiological measurement and kept at 37° C. The epithelia are bathed in a NaCl-Ringer solution (120 mM NaCl, 25 mM NaHCO3, 1.2 mM CaCl2), 1.2 mM MgCl2, 0.8 mM KH2PO4, 0.8 mM K2HP04, pH 7.4, 5 mM glucose) on both the basolateral and apical sides. Test compounds (corrector, co-corrector, 4-[(2R,4R)-4-({[1-(2,2-difluoro-1,3-benzodioxol-5-yl)cyclopropyl]carbonyl}amino)-7-(difluoromethoxy)-3,4-dihydro-2H-chromen-2-yl]benzoic acid, and potentiator, N-(3-carbamoyl-5,5,7,7-tetramethyl-4,7-dihydro-5H-thieno[2,3-c]pyran-2-yl)-1H-pyrazole-5-carboxamide), are re-added to the recording solution prior to measurement. […] Apical amiloride is used to inhibit the endogenous ENaC currents while forskolin is applied on both apical and basolateral side to stimulate CFTR. Measurements are done during a 20 minute timeframe with recordings every 2 minutes. The increase in Ieq is used as a measure for the increased CFTR activity, EC50 values can be generated by measuring impact of different concentrations of compound on Ieq on primary cells, for this purpose each transwell is treated with a different compound concentration. […] Raw data were normalized to percentage activity values using the equation: 100×(Sample−Negative control)/(Positive control−Negative Control).

A further experiment concerns the target T2, ΔF508-CFTR (Homo sapiens, UniProt P13569, DEL508-508).
T2 construct: host or cells: CFBE41o- cells, doxycycline-inducible expression
Put plainly: CFTR cell surface levels using HRP-tagged ΔF508-CFTR expressing CFBE cells, intrinsic corrector capacity. The class given is cell-based. The arrangement: % Activation: concentration or dose not given beside the values. Particulars: HRP-tagged ΔF508-CFTR expressing CFBE41o- cells; compounds alone (intrinsic corrector capacity); 20 hours at 33° C. The source says: Measuring CFTR Cell Surface Levels Using HRP-Tagged ΔF508-CFTR Expressing CFBE Cells
The HRP-tagged ΔF508-CFTR cell assay measures the expression of CFTR-ΔF508 at the plasma membrane. CFTR-ΔF508 has a folding defect leading to absence of protein at the plasma membrane. This assay is used to evaluate the capacity of compounds to increase the expression of CFTR-ΔF508 at the plasma membrane. […] When HRP-tagged ΔF508-CFTR is present at the plasma membrane, the HRP enzyme activity can be measured. The amount of CFTR-ΔF508 that can be rescued to the plasma membrane is correlated with the amount of functional enzyme that can be measured.
There are several ways to measure the capacity of compounds to rescue CFTR-ΔF508 to the plasma membrane; either compounds are evaluated on their own and the impact on plasma membrane levels is measured or compounds are evaluated in combination with a co-corrector, i.e. a compound that rescues CFTR-ΔF508 to the plasma membrane but rescue can be enhanced by addition of compounds due to a complementary mode of action.
Activity of Compounds for their Intrinsic Corrector Capacity:
On day four, L test compounds diluted in PBS were added to the plates at a final DMSO concentration of 0.1%. All compound plates contained negative controls (DMSO) and positive controls ([…] corrector, 3-[(2R,4R)-4-({[1-(2,2-difluoro-1,3-benzodioxol-5-yl)cyclopropyl]carbonyl}amino)-7-methoxy-3,4-dihydro-2H-chromen-2-yl]benzoic acid). Cell plates were incubated at 33° C., 5% CO2 for 20 hours. […] After incubation for 15 minutes in the dark, chemiluminescence was measured using a plate reader (EnVision®, Perkin Elmer). Raw data were normalized to percentage activity values using the equation: 100×(Sample−Negative control)/(Positive control−Negative Control).

Where [1] appears, read: read-out: % Activity at 1 μM (AUC**).

T1 sequence (P13569 with tags, fused parts or gaps DEL508-508): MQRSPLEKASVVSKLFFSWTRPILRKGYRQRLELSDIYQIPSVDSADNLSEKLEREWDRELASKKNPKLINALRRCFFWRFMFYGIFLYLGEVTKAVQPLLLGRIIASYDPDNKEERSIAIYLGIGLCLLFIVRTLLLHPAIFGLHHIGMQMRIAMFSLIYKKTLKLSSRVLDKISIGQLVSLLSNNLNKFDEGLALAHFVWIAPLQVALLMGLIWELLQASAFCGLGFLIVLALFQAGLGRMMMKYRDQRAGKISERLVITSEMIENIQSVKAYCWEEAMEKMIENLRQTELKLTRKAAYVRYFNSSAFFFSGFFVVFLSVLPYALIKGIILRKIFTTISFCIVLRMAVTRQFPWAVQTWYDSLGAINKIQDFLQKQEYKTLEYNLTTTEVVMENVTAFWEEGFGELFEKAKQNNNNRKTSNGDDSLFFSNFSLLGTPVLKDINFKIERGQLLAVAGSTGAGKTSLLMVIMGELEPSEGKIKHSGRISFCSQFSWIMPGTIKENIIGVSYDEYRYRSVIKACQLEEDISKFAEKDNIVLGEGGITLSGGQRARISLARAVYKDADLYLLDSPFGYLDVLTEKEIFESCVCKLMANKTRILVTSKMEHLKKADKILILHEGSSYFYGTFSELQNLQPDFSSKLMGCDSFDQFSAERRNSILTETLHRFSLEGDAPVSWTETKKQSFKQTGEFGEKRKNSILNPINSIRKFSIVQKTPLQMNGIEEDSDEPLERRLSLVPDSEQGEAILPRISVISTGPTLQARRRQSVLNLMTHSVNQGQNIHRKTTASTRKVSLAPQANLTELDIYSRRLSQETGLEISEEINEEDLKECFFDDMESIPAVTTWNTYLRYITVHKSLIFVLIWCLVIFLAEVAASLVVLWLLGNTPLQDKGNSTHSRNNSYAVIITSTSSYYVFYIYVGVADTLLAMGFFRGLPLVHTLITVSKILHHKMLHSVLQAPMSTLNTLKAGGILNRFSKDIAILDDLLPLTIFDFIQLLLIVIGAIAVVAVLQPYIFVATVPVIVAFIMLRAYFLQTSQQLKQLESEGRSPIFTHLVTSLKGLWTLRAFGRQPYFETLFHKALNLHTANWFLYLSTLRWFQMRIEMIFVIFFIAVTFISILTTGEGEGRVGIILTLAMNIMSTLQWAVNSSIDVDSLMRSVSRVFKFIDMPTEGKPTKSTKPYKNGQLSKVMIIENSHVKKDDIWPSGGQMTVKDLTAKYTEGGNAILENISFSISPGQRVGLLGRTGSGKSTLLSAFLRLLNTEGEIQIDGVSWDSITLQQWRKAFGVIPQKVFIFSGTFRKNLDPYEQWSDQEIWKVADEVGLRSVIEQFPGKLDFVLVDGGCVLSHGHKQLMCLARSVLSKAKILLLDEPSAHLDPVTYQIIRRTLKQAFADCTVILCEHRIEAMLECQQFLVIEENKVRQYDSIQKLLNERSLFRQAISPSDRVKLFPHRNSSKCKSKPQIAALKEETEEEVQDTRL
T2 sequence (P13569 with tags, fused parts or gaps DEL508-508): as above

By EC50 is commonly meant the concentration giving half of the maximal effect. Consider `CC(C)N1CCN(C2CCN(c3cc(C(=O)NS(=O)(=O)N(C)C)nc4c3c(C3CCC3)nn4-c3ccc(F)cc3)CC2)CC1` [compound 382], for which the EC50 on CFTR ΔF508 is 100 nM.
On the same count and under the same terms, next, `CN(C)S(=O)(=O)NC(=O)c1cc(OCC2CCOCC2)c2c(C3CCC3)nn(-c3ccccc3)c2n1` [compound 334]: 100 nM.
In the case of `CS(=O)(=O)NC(=O)c1cc(N2CCC(CCN3CCOCC3)CC2)c2c(C3CCC3)nn(-c3ccccc3)c2n1` [Compound 331, 3-cyclobutyl-N-(methanesulfonyl)-4-{4-[2-(morpholin-4-yl)ethyl]piperidin-1-yl}-1-phenyl-1H-pyrazolo[3,4-b]pyridine-6-carboxamide], the activity at 1 µM at CFTR ΔF508 (setting [1]) amounted to 537%.
For the compound `COCC1CN(C2CCN(c3cc(C(=O)NS(=O)(=O)N(C)C)nc4c3c(C3CCC3)nn4-c3ccc(F)cc3)CC2)CCO1` (stereo not shown) [Compound 379, 3-cyclobutyl-N-(dimethylsulfamoyl)-1-(4-fluorophenyl)-4-{4-[2-(methoxymethyl)morpholin-4-yl]piperidin-1-yl}-1H-pyrazolo[3,4-b]pyridine-6-carboxamide], the activity at 1 µM at CFTR ΔF508 (setting [1]) amounted to 370%.
Consider `CN1CCN(Cc2cc(C(=O)NS(C)(=O)=O)nc3c2c(C2CCC2)nn3-c2ccc(F)cc2)CC1` [compound 518], for which the 50% effective concentration (EC50) at ΔF508-CFTR was determined as 10 µM.
As to `O=C(NS(=O)(=O)N1CCOCC1)c1cc(N2CCC(CN3CCCC3)CC2)c2c(C3CCC3)nn(-c3ccccc3)c2n1` [Compound 380, 3-cyclobutyl-N-(morpholine-4-sulfonyl)-1-phenyl-4-{4-[(pyrrolidin-1-yl)methyl]piperidin-1-yl}-1H-pyrazolo[3,4-b]pyridine-6-carboxamide], the activity at 3 µM on CFTR ΔF508 was 250%.
Regarding `Cc1nn(C2CCCCC2)c2nc(C(=O)NS(=O)(=O)C3CC3)cc(-c3ccc(N4CCOCC4)cc3)c12` [compound 239], the EC50 on ΔF508-CFTR is 0.0993 µM.
`COCCS(=O)(=O)NC(=O)c1cc(-c2ccc(CN3CCOCC3)cc2)c2c(OC(C)C)nn(C3CCCCC3)c2n1` [compound 405]: at ΔF508-CFTR, the “% Activation” value came to 181.2%.
Turning to `CCS(=O)(=O)N(C)C(=O)c1cc(N2CCC(N3CCOCC3)CC2)c2c(C3CCC3)nn(-c3ccccc3)c2n1` [Compound 658, 3-cyclobutyl-N-(ethanesulfonyl)-N-methyl-4-[4-(morpholin-4-yl)piperidin-1-yl]-1-phenyl-1H-pyrazolo[3,4-b]pyridine-6-carboxamide], the activity at 3 µM at CFTR ΔF508 amounted to 260%.
Turning to `CN(C(=O)c1cc(N2CCC(N3CCOCC3)CC2)c2c(C3CCC3)nn(-c3ccccc3)c2n1)S(C)(=O)=O` [Compound 656, 3-cyclobutyl-N-(methanesulfonyl)-N-methyl-4-[4-(morpholin-4-yl)piperidin-1-yl]-1-phenyl-1H-pyrazolo[3,4-b]pyridine-6-carboxamide], the activity at 3 µM on CFTR ΔF508 was determined as 198%.
In the case of `CCS(=O)(=O)NC(=O)c1cc(-c2ccc(OC)cc2)c2c(C)nn(-c3ccccc3)c2n1` [compound 15], the “% Activation” value on ΔF508-CFTR came to 151.675%.
As to `CCS(=O)(=O)NC(=O)c1cc(-c2cnc(N(C)C)nc2)c2c(C3CN(C(=O)OC)C3)nn(C3CCCCC3)c2n1` [compound 52], at ΔF508-CFTR, the EC50 turned out to be 11.5 µM.
For the compound `CC(C)N1CCC(c2cc(C(=O)NS(=O)(=O)N(C)C)nc3c2c(C2CCC2)nn3-c2ccc(F)cc2)CC1` [compound 598], the EC50 at ΔF508-CFTR came out at 10 µM.
As for `CC(C)Oc1nn(C2CCCCC2)c2nc(C(=O)NS(=O)(=O)N(C)C)cc(-c3ccc(CN4CCOCC4)cc3)c12` [compound 406], the “% Activation” value on ΔF508-CFTR is on record as 160.8%.
For `COCCS(=O)(=O)NC(=O)c1cc(N2CCC(N3CCOCC3)CC2)c2c(C3CCC3)nn(-c3ccc(F)cc3)c2n1` [compound 407], the “% Activation” value at ΔF508-CFTR was 125.95%.
Consider `CC(C)Oc1nn(C2CCCCC2)c2nc(C(=O)NS(C)(=O)=O)cc(-c3ccc(C(=O)N4CC5CNCC5C4)cc3)c12` (stereo not shown) [Compound 631, 1-cyclohexyl-4-[4-(hexahydropyrrolo[3,4-c]pyrrole-2(1H)-carbonyl)phenyl]-N-(methanesulfonyl)-3-[(propan-2-yl)oxy]-1H-pyrazolo[3,4-b]pyridine-6-carboxamide], for which the activity at 1 µM on CFTR ΔF508 (setting [1]) stood at 157%.
On to `CS(=O)(=O)NC(=O)c1cc(-c2ccc(N3CCC(C#N)CC3)nc2)c2c(C3CCC3)nn(-c3ccccc3)c2n1` [Compound 71, 4-[6-(4-cyanopiperidin-1-yl)pyridin-3-yl]-3-cyclobutyl-N-(methanesulfonyl)-1-phenyl-H-pyrazolo[3,4-b]pyridine-6-carboxamide], for which the activity at 1 µM on CFTR ΔF508 (read-out: % Activity at 1 μM (Ieq*)) came out at 270%.
On to `O=C(NS(=O)(=O)N1CCOCC1)c1cc(N2CCC(N3CCOCC3)CC2)c2c(C3CCC3)nn(-c3ccccc3)c2n1` [Compound 383, 3-cyclobutyl-N-(morpholine-4-sulfonyl)-4-[4-(morpholin-4-yl)piperidin-1-yl]-1-phenyl-1H-pyrazolo[3,4-b]pyridine-6-carboxamide], for which the activity at 3 µM at CFTR ΔF508 was 299%.
With `CS(=O)(=O)NC(=O)c1cc(N2CCC(N3CCCCC3)CC2)c2c(C3CCC3)nn(-c3ccccc3)c2n1` [Compound 365, 4-([1,4′-bipiperidin]-1′-yl)-3-cyclobutyl-N-(methanesulfonyl)-1-phenyl-1H-pyrazolo[3,4-b]pyridine-6-carboxamide], the activity at 3 µM at CFTR ΔF508 stood at 522%.
Take `COCC1CCN(c2cc(C(=O)N(C)S(C)(=O)=O)nc3c2c(C2CCC2)nn3-c2ccccc2)CC1` [Compound 657, 3-cyclobutyl-N-(methanesulfonyl)-4-[4-(methoxymethyl)piperidin-1-yl]-N-methyl-1-phenyl-1H-pyrazolo[3,4-b]pyridine-6-carboxamide]: the activity at 3 µM at CFTR ΔF508 turned out to be 358%.
For `COCC1CCN(c2cc(C(=O)NS(C)(=O)=O)nc3c2c(C2CCC2)nn3-c2ccccc2)CC1` [Compound 185, 3-cyclobutyl-N-(methanesulfonyl)-4-[4-(methoxymethyl)piperidin-1-yl]-1-phenyl-1H-pyrazolo[3,4-b]pyridine-6-carboxamide], the activity at 1 µM on CFTR ΔF508 (setting [1]) was found to be 453%.
For `CNS(=O)(=O)NC(=O)c1cc(N2CCC(N3CCOCC3)CC2)c2c(C3CCC3)nn(-c3ccc(F)cc3)c2n1` [Compound 517, 3-cyclobutyl-1-(4-fluorophenyl)-N-(methylsulfamoyl)-4-[4-(morpholin-4-yl)piperidin-1-yl]-H-pyrazolo[3,4-b]pyridine-6-carboxamide], the activity at 3 µM on CFTR ΔF508 was found to be 309%.
In the case of `COCC1CCN(c2cc(C(=O)NS(=O)(=O)CCO)nc3c2c(C2CCC2)nn3-c2ccccc2)CC1` [Compound 366, 3-cyclobutyl-N-(2-hydroxyethanesulfonyl)-4-[4-(methoxymethyl)piperidin-1-yl]-1-phenyl-1H-pyrazolo[3,4-b]pyridine-6-carboxamide], the activity at 1 µM on CFTR ΔF508 (setting [1]) turned out to be 428%.
As for `CS(=O)(=O)NC(=O)c1cc(N2CCC(N3CCOCC3)CC2)c2c(C3CCC3)nn(-c3ccccc3)c2n1` [Compound 328, 3-cyclobutyl-N-(methanesulfonyl)-4-[4-(morpholin-4-yl)piperidin-1-yl]-1-phenyl-1H-pyrazolo[3,4-b]pyridine-6-carboxamide], on CFTR ΔF508 (setting [1]), the activity at 1 µM turned out to be 532%. Also, the activity at 3 µM on CFTR ΔF508 is 423%.
